From PMC12291850, “Morin Flavonoid Interaction with Albumin and Its Nanoparticle Conjugation: An Efficient Antioxidant Vehicle for Nutraceuticals” (Antioxidants, 2025)

Legend:
[1] = Encapsulation efficiency in BSA nanoparticles (desolvation, HPLC of supernatant); format: physicochemical; conditions: unchanged when co-loaded with morin
[2] = cited from earlier work
[3] = biological target: T1, bovine serum albumin (BSA) (Bos taurus, UniProt P02769); test: Fluorescence quenching of BSA by flavonoids (Stern–Volmer, binding equation, van't Hoff); conditions: for Stern–Volmer quenching constant (Ksv): excitation 295 nm; for ΔG°: morin: 293–310 K
T1 construct: purchased Merck (Darmstadt, Germany)
T1 sequence (P02769 25-607): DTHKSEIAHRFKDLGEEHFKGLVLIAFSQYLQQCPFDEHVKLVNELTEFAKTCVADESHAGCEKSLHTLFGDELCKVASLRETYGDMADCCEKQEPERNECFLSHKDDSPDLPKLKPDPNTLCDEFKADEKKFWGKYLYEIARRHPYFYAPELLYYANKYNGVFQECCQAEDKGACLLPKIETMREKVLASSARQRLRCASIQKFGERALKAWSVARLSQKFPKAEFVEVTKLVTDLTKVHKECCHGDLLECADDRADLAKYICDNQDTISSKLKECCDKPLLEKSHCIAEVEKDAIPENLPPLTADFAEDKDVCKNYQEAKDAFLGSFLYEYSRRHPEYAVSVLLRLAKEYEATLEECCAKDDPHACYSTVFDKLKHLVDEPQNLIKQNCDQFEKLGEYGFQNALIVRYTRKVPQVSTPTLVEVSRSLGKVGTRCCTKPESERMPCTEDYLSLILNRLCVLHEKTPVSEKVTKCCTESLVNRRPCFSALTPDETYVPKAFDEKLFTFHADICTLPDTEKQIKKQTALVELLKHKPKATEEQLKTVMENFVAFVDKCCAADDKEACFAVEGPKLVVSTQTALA
Description: Fluorescence quenching spectroscopy was employed to investigate the interaction between bovine serum albumin (BSA) and selected flavonoids, including morin. All measurements were performed using a spectrofluorometer under controlled temperature conditions (25 °C).
To quantify the quenching effect upon encapsulation, the Stern–Volmer equation was applied (Equation (1)):F0/F = 1 + Ksv [Q](1) where F0 and F are the fluorescence intensities of BSA in the absence and presence of quencher (flavonoid), respectively, Ksv is the Stern–Volmer quenching constant, and [Q] is flavonoid concentration.
The binding constant (Ka) and the number of binding sites (n) were calculated using the logarithmic form of the binding equation (Equation (2)):log[(F0 − F)/F] = log Ka + n log[Q](2)
Thermodynamic parameters—Gibbs free energy change (ΔG°) (Equation (3)), enthalpy change (ΔH°), and entropy change (ΔS°)—were determined from the temperature dependence of the binding constant using the van’t Hoff equation (Equation (4)):ΔG° = ΔH° − TΔS°(3) ln Ka = −ΔH°/RT + ΔS°/R(4)

[4] = Photolysis and photooxidation (hydroxyl radical from H2O2 under UV 254 nm) of morin, HPLC-DAD; format: physicochemical
Description: Morin was incorporated into the system by adding small aliquots of a stock solution in ethanol, ensuring the final ethanol concentration remained below 2% (v/v) to avoid solvent-induced effects on photoreactivity. Oxidative conditions were simulated by the addition of hydrogen peroxide to a final concentration of 0.5% (w/v), serving as a source of hydroxyl radicals upon UV activation. Each reaction mixture was vortexed to ensure homogeneity and subsequently transferred into 5 mL double-jacketed quartz cuvettes. The outer surface of each cuvette was coated with opaque black paint to prevent ambient light interference, except for a centrally located circular window (1 cm diameter) designed to permit focused irradiation. A circulating water bath maintained the cuvette temperature at 20 ± 0.5 °C. Photolysis was carried out using a high-power mercury UV lamp emitting at 254 nm. […] Quantitative analysis of morin degradation and spectral changes associated with hydroxyl radical attack was performed using high-performance liquid chromatography with diode array detection (HPLC-DAD) and UV–visible spectrophotometry.
(§1) A high-performance liquid chromatography (HPLC) method was developed and validated to quantify morin for the subsequent evaluation of encapsulation efficiency, drug loading capacity, physicochemical stability, photodegradation under ultraviolet (UV) exposure, and hydroxyl radical scavenging activity. Chromatographic analyses were conducted using a Shimadzu LC-20AT HPLC system (Shimadzu, Kyoto, Japan), equipped with a SIL-20A autosampler and an SPD-M20A photodiode array (PDA) detector. Separation was achieved on a C18 ODS Hypersil column (250 mm × 4.6 mm, 5 μm particle size; Agilent Technologies, Santa Clara, CA, USA). The mobile phase consisted of acetonitrile and 0.1% trifluoroacetic acid in water (30:70, v/v), delivered under isocratic conditions at a flow rate of 1.0 mL/min. The injection volume was set at 20 μL. Morin detection was performed at a wavelength of 360 nm using the PDA detector. The method was optimized to ensure adequate peak resolution, retention time reproducibility, and sensitivity for low-concentration samples. This analytical approach was employed throughout the study to monitor morin concentration in various experimental settings, including nanoparticle formulations and stability assays.

[5] = biological target: T1, bovine serum albumin (BSA); test: Circular dichroism of BSA with morin under oxidative conditions; conditions: morin 10 and 20 µM, UV irradiation and hydrogen peroxide
Description: Measurements were performed using a J-1500 CD spectropolarimeter (JASCO, Tokyo, Japan) equipped with a temperature-controlled cell holder maintained at 25 °C. Spectra were acquired using a 0.1 cm path length quartz cuvette. Each spectrum represents the average of three consecutive scans, recorded at a scanning speed of […] with a response time of 1 s. […] For oxidative conditions, hydrogen peroxide was added to a final concentration of 0.5% (w/v) to promote hydroxyl radical generation. All solutions were prepared in 10 mM phosphate buffer at pH 7.4 and allowed to equilibrate for 15 min before measurement. Spectra were corrected by subtracting the baseline of the corresponding buffer or hydrogen peroxide control solution.

[6] = biological target: T1, bovine serum albumin (BSA); test: Surface plasmon resonance (SPR) analysis of albumin–morin interaction; format: binding
Description: Gold-coated sensor chips were first cleaned and subsequently modified with a self-assembled monolayer (SAM) of 4-mercaptobenzoic acid (4-MBA) to introduce carboxyl functional groups on the sensor surface.
Non-reacted sites were blocked with 1 M ethanolamine (pH 8.5).
Sensorgrams were recorded in real time, and binding responses were referenced against control channels and buffer-only injections.
Equilibrium binding data were analyzed using Langmuir isotherm models to estimate the apparent association constant (Ka), dissociation constant (Kd), and maximum binding response (Rmax). Data fitting and kinetic analysis were performed using the instrument’s integrated software suite.

[7] = parameters: method as in doi:10.1039/C6RA20441D; conditions: cited from earlier work
[8] = Encapsulation efficiency in BSA nanoparticles (desolvation, HPLC of supernatant); format: physicochemical
Description: as §1
The impact of other antioxidant molecules (ellagic acid and tocopherol succinate) on the behavior of morin encapsulated in BSA nanoparticles in an intestinal environment was assessed through in vitro loading and release experiments. […] Then, ethanol was added dropwise under constant stirring, followed by the addition of 20 µL of an 8% glutaraldehyde solution [25]. The final volume of the mixture was adjusted to 10 mL. After 24 h, the nanoparticles were collected by centrifugation (13,500 rpm, 20 min, and 25 °C) and washed with water. The supernatant was separated for further analysis. To incorporate ellagic acid or tocopherol succinate, each compound—either individually or in combination—was included in the ethanol phase during the dropwise addition. The rest of the procedure remained unchanged. The encapsulation efficiency (%EE) was calculated using Equation (5):(5) %EE=Mi−Mf/Mi×100 where Mi and Mf correspond to the initial amount of morin added during the loading process and the free morin in the supernatant, respectively.

[9] = test system: human serum albumin (HSA); conditions: fluorescence studies; cited from earlier work
[10] = BSA nanoparticles prepared via desolvation
[11] = BSA fluorescence quenching, 25 °C
[12] = flavonoid–BSA complex, van't Hoff analysis
[13] = read-out: binding constant (Ka) (converted)

Q: For `O=c1oc2cc(O)ccc2c2oc3cc(O)ccc3c12` [coumestrol], which “encapsulation efficiency of coumestrol” value [1] is on record?
A: 22.4% ± 0.1%

Q: And the “encapsulation efficiency in BSA nanoparticles” value ([2]; previous studies)?
A: 22.4% ± 0.1%

Q: With `O=c1c(O)c(-c2ccc(O)c(O)c2)oc2cc(O)ccc12` [fisetin] as the compound, how does the average particle size [2, 10] read?
A: 200 ± 8 nm

Q: And the encapsulation efficiency [2, 10]?
A: 84%

Q: With `O=c1c(-c2ccc(O)cc2)coc2cc(O)cc(O)c12` [genistein] as the compound, how does the Kd [3] read?
A: 11.4 µM

Q: What about the “number of binding sites (n)” value ([3]; BSA fluorescence quenching) of the same compound?
A: 1.22 ± 0.04

Q: And the “bimolecular quenching rate constant (kq)” value [3, 11]?
A: 8.11 × 10^12 ± 0.04 L mol^−1 s^−1

Q: And the “Stern–Volmer quenching constant (Ksv)” value [3, 11]?
A: 8.11 × 10^4 ± 0.02 L mol^−1

Q: Which results are given for `O=c1c(-c2ccc(O)cc2)coc2cc(O[C@@H]3O[C@H](CO)[C@@H](O)[C@H](O)[C@H]3O)cc(O)c12` [genistin]?
A: number of binding sites (n) ([3]; BSA fluorescence quenching): 0.94 ± 0.01; bimolecular quenching rate constant (kq) [3, 11]: 3.66 × 10^12 ± 0.04 L mol^−1 s^−1; Stern–Volmer quenching constant (Ksv) [3, 11]: 3.66 × 10^4 ± 0.05 L mol^−1; ΔG° [3, 12]: –26.9 kJ·mol^−1; Kd [3, 13]: 29.5 µM

Q: Which “number of binding sites (n)” value ([3]; BSA fluorescence quenching) does the source give for `O=c1c(O)c(-c2ccc(O)cc2)oc2cc(O)cc(O)c12` [kaempferol] here?
A: 1.33 ± 0.03

Q: What about the “bimolecular quenching rate constant (kq)” value [3, 11] of the same compound?
A: 2.23 × 10^13 ± 0.02 L mol^−1 s^−1

Q: And the “Stern–Volmer quenching constant (Ksv)” value [3, 11]?
A: 2.23 × 10^5 ± 0.03 L mol^−1

Q: What about the Kd [3, 13] of the same compound?
A: 5.99 µM

Q: With `O=c1c(O)c(-c2ccc(O)cc2O)oc2cc(O)cc(O)c12` [morin, 3,5,7,2′,4′-pentahydroxyflavone] as the compound, how does the “initial morin concentration retained” value ([4]; UV exposure with hydrogen peroxide, 10 min, 2 µM BSA, pH 7.4) read?
A: 79%

Q: And the morin concentration remaining ([4]; UV exposure with hydrogen peroxide, 10 min, absence of BSA, pH 7.4)?
A: 61.5%

Q: And the “initial morin concentration remaining” value ([4]; UV photolysis, 10 min, absence of BSA, phosphate buffer pH 7.4)?
A: 94.9%

Q: And the “improvement in morin retention compared to the system without BSA” value ([4]; photooxidation 10 min, 2 µM BSA)?
A: 17.5%

Q: And the “effect on BSA secondary structure (CD ellipticity at 208 and 222 nm)” value [5]?
A: no significant loss of α-helical structure

Q: And the Kd [6]?
A: 285 µM

Q: And the Kd [3]?
A: 5.35 µM

Q: And the “number of binding sites (n)” value ([3]; BSA fluorescence quenching)?
A: 1.10 ± 0.02

Q: What about the “bimolecular quenching rate constant (kq)” value [3, 11] of the same compound?
A: 1.76 × 10^13 ± 0.02 L mol^−1 s^−1

Q: What about the “binding constant (Ka)” value [3, 11] of the same compound?
A: 187000 L/mol

Q: And the “Stern–Volmer quenching constant (Ksv)” value [3, 11]?
A: 1.76 × 10^5 ± 0.03 L mol^−1

Q: What about the “ΔH°” value [3, 12] of the same compound?
A: –28.7 kJ·mol^−1

Q: And the “ΔS°” value [3, 12]?
A: 4.75 J·mol^−1·K^−1

Q: What about the “ΔG°” value [3, 12] of the same compound?
A: approximately –30.1 kJ·mol^−1

Q: And the extended release ([7]; 72 h, pH 7.4)?
A: up to 80%

Q: What about the “initial 6 h release” value ([7]; stated for both this study (SIF) and the literature study (pH 7.4)) of the same compound?
A: < 40%

Q: And the “%EE of morin” value ([8]; BSA nanoparticles co-loaded with both ellagic acid and tocopherol succinate)?
A: 80%

Q: What about the “%EE of morin” value ([8]; BSA nanoparticles co-loaded with ellagic acid) of the same compound?
A: 76%

Q: And the “%EE of morin” value ([8]; BSA nanoparticles co-loaded with tocopherol succinate)?
A: 72.6%

Q: And the “%EE of morin” value ([8]; encapsulated alone in BSA nanoparticles (comparison with coumestrol co-loading))?
A: 20.5% ± 3.0%

Q: What about the “%EE” value ([8]; initial [Morin] 0.128 mM) of the same compound?
A: 25.97 ± 4.29%

Q: What about the Morin/BSA molar ratio ([8]; initial [Morin] 0.128 mM) of the same compound?
A: 0.30 ± 0.05

Q: And the “%EE” value ([8]; initial [Morin] 0.222 mM)?
A: 20.42 ± 0.67%

Q: What about the Morin/BSA molar ratio ([8]; initial [Morin] 0.222 mM) of the same compound?
A: 0.48 ± 0.02

Q: And the “%EE” value ([8]; initial [Morin] 0.308 mM)?
A: 19.31 ± 0.42%

Q: What about the Morin/BSA molar ratio ([8]; initial [Morin] 0.308 mM) of the same compound?
A: 0.68 ± 0.01

Q: And the “%EE” value ([8]; initial [Morin] 0.507 mM)?
A: 20.99 ± 0.27%

Q: And the Morin/BSA molar ratio ([8]; initial [Morin] 0.507 mM)?
A: 0.98 ± 0.01

Q: What about the Morin/BSA molar ratio ([8]; initial [Morin] 0.634 mM) of the same compound?
A: 1.01 ± 0.04

Q: And the “%EE” value ([8]; initial [Morin] 1.478 mM)?
A: 18.94 ± 0.85%

Q: And the Morin/BSA molar ratio ([8]; initial [Morin] 1.478 mM)?
A: 1.48 ± 0.07

Q: And the “encapsulation efficiencies (maximum)” value ([8]; morin in BSA nanoparticles prepared by desolvation)?
A: up to 26%

Q: With `O=c1c(O)c(-c2ccc(O)c(O)c2)oc2cc(O)cc(O)c12` [quercetin] as the compound, how does the “number of binding sites (n)” value ([3]; BSA fluorescence quenching) read?
A: 1.13 ± 0.02

Q: And the “bimolecular quenching rate constant (kq)” value [3, 11]?
A: 1.88 × 10^13 ±0.03 L mol^−1 s^−1

Q: And the “Stern–Volmer quenching constant (Ksv)” value [3, 11]?
A: 1.88 × 10^5 ± 0.02 L mol^−1

Q: Which “association constant (K)” value [9] does the source give for `O=C(/C=C/c1ccc(O)c(O)c1)O[C@H](Cc1ccc(O)c(O)c1)C(=O)O` [rosmarinic acid] here?
A: ~10^7 M^−1
